Measured values as given in US9763997B2, “Spray drying vancomycin” (Hospira, Inc., priority 2011, dated 2017).
Counter-ions that a name gives are not always drawn.

How the values were obtained:
[1] = Stability testing of spray dried batches at 25° C./60% RH, 30° C./60% RH, 40° C./75% RH (moisture by Karl Fischer, pH of reconstituted solution, reconstitution time, chromatographic purity); format: physicochemical; settings: Initial
Procedure: (§1) Batches for stability testing were made using the spray dried formulation of vancomycin HCl (15% by weight), PEG-400 (3% by weight), mannitol (3% by weight) in WFI, with the API sourced from Abbott Laboratories (North Chicago, Ill.). Spray dried batches were stored at 25° C./60% Relative Humidity (RH), 30° C./60% RH, and 40° C./75% RH for three months. The stability data on moisture by Karl Fischer, pH (of the reconstituted solution), reconstitution time and chromatographic purity are presented in Table 7. The chromatographic purity was examined using the analytical HPLC method described in the current USP (United States Pharmacopeia) monograph for vancomycin. The test results for the API lot used to make the spray dried product were also listed for comparison.
The chromatographic purity of vancomycin B for all samples tested in this study were within USP specifications. All samples were stored at the accelerated conditions of 40° C./75% RH for 3 months and met USP criterion for vancomycin B by chromatographic purity (NLT 80% vancomycin B).

[2] = Chromatographic purity (vancomycin B and impurities), analytical HPLC method of the USP vancomycin monograph; format: physicochemical
Procedure: as §1

Compound	% Vancomycin B [1] [%]	Other ([2]; Table 8, other impurities) [%]	N-Demethylvancomycin ([2]; Table 8, tested for impurities) [%]	Vancomycin B ([2]; Table 8, tested for impurities) [%]
CN[C@H](CC(C)C)C(=O)N[C@H]1C(=O)N[C@@H](CC(N)=O)C(=O)N[C@H]2C(=O)N[C@H]3C(=O)N[C@H](C(=O)N[C@H](C(=O)O)c4cc(O)cc(O)c4-c4cc3ccc4O)[C@H](O)c3ccc(c(Cl)c3)Oc3cc2cc(c3O[C@@H]2O[C@H](CO)[C@@H](O)[C@H](O)[C@H]2O[C@H]2C[C@](C)(N)[C@H](O)[C@H](C)O2)Oc2ccc(cc2Cl)[C@H]1O [API Lot 09097619, Vancomycin HCl]	91.9			
CN[C@H](CC(C)C)C(=O)N[C@H]1C(=O)N[C@@H](CC(N)=O)C(=O)N[C@H]2C(=O)N[C@H]3C(=O)N[C@H](C(=O)N[C@H](C(=O)O)c4cc(O)cc(O)c4-c4cc3ccc4O)[C@H](O)c3ccc(c(Cl)c3)Oc3cc2cc(c3O[C@@H]2O[C@H](CO)[C@@H](O)[C@H](O)[C@H]2O[C@H]2C[C@](C)(N)[C@H](O)[C@H](C)O2)Oc2ccc(cc2Cl)[C@H]1O [API, Vancomycin Hydrochloride]		4.5	0.6	94.9
